Measurements published in PubChem BioAssay AID330 (DTP/NCI, 2004).
Values joined by “and” are separate entries in the source; they are usually repeats but may differ in a detail not shown here. Equal values may be shown once. Toxic doses and inconclusive results are not listed. The calls were made as follows: active = survival T/C of 150% or more; inactive = T/C below 125% in these data.

System: P388 leukemia ip, CD2F1 mice, survival T/C
Assay: NCI In Vivo Anticancer Drug Screen. Data for tumor model P388 Leukemia (intraperitoneal) in CD2F1 (CDF1) mice
Conditions: endpoint: median survival time, higher = longer survival
Summary of the method: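 Mice carrying the transplanted tumor received test compound or vehicle. Survival was recorded in each group, and the value is the treated-group measurement divided by that of the vehicle-treated control group.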

[1] = dose: 50.0 mg/kg/injection, schedule: Q01DX009 (ip), vehicle: other
[2] = dose: 100.0 mg/kg/injection, schedule: Q01DX009 (ip), vehicle: other
[3] = dose: 200.0 mg/kg/injection, schedule: Q01DX009 (ip), vehicle: other
[4] = dose: 50.0 mg/kg/injection, schedule: Q01DX009 (ip), vehicle: saline with Tween-80
[5] = dose: 100.0 mg/kg/injection, schedule: Q01DX009 (ip), vehicle: saline with Tween-80
[6] = dose: 200.0 mg/kg/injection, schedule: Q01DX009 (ip), vehicle: saline with Tween-80
[7] = dose: 400.0 mg/kg/injection, schedule: Q01DX009 (ip), vehicle: saline with Tween-80
[8] = dose: 50.0 mg/kg/injection, schedule: Q01DX005 (ip), vehicle: Klucel (hydroxypropylcellulose) (HPC)
[9] = dose: 100.0 mg/kg/injection, schedule: Q01DX005 (ip), vehicle: Klucel (hydroxypropylcellulose) (HPC)
[10] = dose: 200.0 mg/kg/injection, schedule: Q01DX005 (ip), vehicle: Klucel (hydroxypropylcellulose) (HPC)
[11] = dose: 100.0 mg/kg/injection, schedule: Q01DX009 (ip), vehicle: Klucel (hydroxypropylcellulose) (HPC)
[12] = dose: 200.0 mg/kg/injection, schedule: Q01DX009 (ip), vehicle: Klucel (hydroxypropylcellulose) (HPC)
[13] = dose: 50.0 mg/kg/injection, schedule: Q01DX005 (ip), vehicle: saline with Tween-80
[14] = dose: 100.0 mg/kg/injection, schedule: Q01DX005 (ip), vehicle: saline with Tween-80
[15] = dose: 200.0 mg/kg/injection, schedule: Q01DX005 (ip), vehicle: saline with Tween-80
[16] = dose: 50.0 mg/kg/injection, schedule: Q01DX009 (ip), vehicle: Klucel (hydroxypropylcellulose) (HPC)
[17] = dose: 60.0 mg/kg/injection, schedule: Q01DX005 (ip), vehicle: Klucel (hydroxypropylcellulose) (HPC)
[18] = dose: 120.0 mg/kg/injection, schedule: Q01DX005 (ip), vehicle: Klucel (hydroxypropylcellulose) (HPC)
[19] = dose: 240.0 mg/kg/injection, schedule: Q01DX005 (ip), vehicle: Klucel (hydroxypropylcellulose) (HPC)
[20] = dose: 12.5 mg/kg/injection, schedule: Q01DX009 (ip), vehicle: saline with Tween-80
[21] = dose: 25.0 mg/kg/injection, schedule: Q01DX009 (ip), vehicle: saline with Tween-80
[22] = dose: 50.0 mg/kg/injection, schedule: Q04DX003 (ip), vehicle: saline

Measured: T/C

N=C(N)c1ccc(/C=C/c2ccc(C(=N)N)cc2O)cc1
inactive: dose: 12.5 mg/kg/injection, schedule: Q01DX009 (ip), vehicle: water 111 % of control | dose: 22.0 mg/kg/injection, schedule: Q01DX009 (ip), vehicle: water 120 % of control | dose: 25.0 mg/kg/injection, schedule: Q01DX009 (ip), vehicle: water 120 % of control

COC1=CC(=O)c2ncccc2C1=O
inactive: dose: 1.56 mg/kg/injection, schedule: Q01DX009 (ip), vehicle: DMSO 101 % of control | dose: 3.13 mg/kg/injection, schedule: Q01DX009 (ip), vehicle: DMSO 100 % of control | dose: 6.25 mg/kg/injection, schedule: Q01DX009 (ip), vehicle: DMSO 100 % of control | dose: 12.5 mg/kg/injection, schedule: Q01DX009 (ip), vehicle: DMSO 111 % of control and 96 % of control | dose: 25.0 mg/kg/injection, schedule: Q01DX009 (ip), vehicle: DMSO 101 % of control and 113 % of control

COC(=O)CCCCc1ccc(CCCC(=O)OC)c2ccccc12
inactive: [1] 102 % of control | [2] 102 % of control | [3] 105 % of control

CNC(=O)CCCCC(=O)NC
inactive: [4] 96 % of control | [5] 104 % of control | [6] 114 % of control | [7] 96 % of control

Cc1ccccc1-n1c(COc2c(C)cccc2C)n[nH]c1=S
inactive: [8] 93 % of control | [9] 97 % of control | [10] 99 % of control

CCCCC(CC)CCC(CC(C)C)OCCC#N (configuration not stated)
inactive: [11] 100 % of control | [12] 96 % of control | dose: 400.0 mg/kg/injection, schedule: Q01DX009 (ip), vehicle: Klucel (hydroxypropylcellulose) (HPC) 90 % of control

CC(=O)Nc1c(C)ncn(-c2ccccc2)c1=O
inactive: dose: 60.0 mg/kg/injection, schedule: Q01DX005 (ip), vehicle: saline 95 % of control | dose: 120.0 mg/kg/injection, schedule: Q01DX005 (ip), vehicle: saline 100 % of control | dose: 240.0 mg/kg/injection, schedule: Q01DX005 (ip), vehicle: saline 101 % of control

CCOC(=O)c1cc(=O)c2c(OC)ccc(OC)c2[nH]1
inactive: [13] 90 % of control | [14] 98 % of control | [15] 97 % of control

CCC(=O)NC1=C(Cl)C(=O)C(NC(=O)CC)=C(Cl)C1=O
inactive: [16] 98 % of control | [11] 98 % of control

CN=C(N)NN=C(c1ccc(F)cc1)c1ccc(F)cc1
inactive: dose: 12.5 mg/kg/injection, schedule: Q04DX002 (ip), vehicle: saline with Tween-80 100 % of control and 106 % of control | dose: 50.0 mg/kg/injection, schedule: Q04DX002 (ip), vehicle: saline with Tween-80 87 % of control

O=C(CCCO)c1nc2ccccc2s1
inactive: [17] 106 % of control | [18] 101 % of control | [19] 100 % of control

CCN(CC)CCOc1ccc(NC2=C(Cl)C(=O)C(Nc3ccc(OCCN(CC)CC)cc3)=C(Cl)C2=O)cc1
inactive: dose: 3.13 mg/kg/injection, schedule: Q01DX009 (ip), vehicle: saline + alcohol 103 % of control | dose: 6.25 mg/kg/injection, schedule: Q01DX009 (ip), vehicle: saline + alcohol 110 % of control | dose: 12.5 mg/kg/injection, schedule: Q01DX009 (ip), vehicle: saline + alcohol 112 % of control | [20] 105 % of control | [21] 106 % of control

CC(Oc1ccc(Oc2ccc(Cl)cc2)cc1)C(=O)O (configuration not stated)
inactive: [16] 102 % of control | [11] 90 % of control | [12] 89 % of control

CCOn1nnc2ccccc21
inactive: [4] 92 % of control | [5] 95 % of control | [6] 92 % of control

Cc1cccc(N(CCO)CCC#N)c1
inactive: dose: 50.0 mg/kg/injection, schedule: Q01DX005 (ip), vehicle: distilled water + Tween-80 + alcohol 102 % of control | dose: 100.0 mg/kg/injection, schedule: Q01DX005 (ip), vehicle: distilled water + Tween-80 + alcohol 101 % of control | dose: 200.0 mg/kg/injection, schedule: Q01DX005 (ip), vehicle: distilled water + Tween-80 + alcohol 94 % of control

COC(=O)/C=C1/Nc2ccccc2SC1C(=O)OC (configuration not stated)
inactive: [13] 104 % of control | [14] 99 % of control | [15] 100 % of control

CCN(CC)CCC[Si]1(C)c2ccccc2CCc2ccccc21
inactive: dose: 25.0 mg/kg/injection, schedule: Q04DX003 (ip), vehicle: saline 111 % of control | [22] 102 % of control | dose: 100.0 mg/kg/injection, schedule: Q04DX003 (ip), vehicle: saline 92 % of control

COC(=O)n1oc2ccc(Br)cc2c1=O
inactive: [8] 98 % of control | [9] 100 % of control | [10] 106 % of control

CC(=O)Nc1cccc(N)c1
inactive: dose: 33.0 mg/kg/injection, schedule: Q04DX003 (ip), vehicle: saline 95 % of control | [22] 95 % of control | dose: 75.0 mg/kg/injection, schedule: Q04DX003 (ip), vehicle: saline 100 % of control

On1cc/c(=N\N=C\c2ccc(N(CCCl)CCCl)cc2)c2ccc(Cl)cc21
inactive: [4] 101 % of control | [5] 101 % of control | [6] 94 % of control

CCc1cccc(CC)c1N1CC(C(=O)O)CC1=O (configuration not stated)
inactive: [17] 107 % of control | [18] 101 % of control | [19] 101 % of control

CC(C)c1nnc2cc3oc4ccccc4c3cc2c1N
inactive: dose: 6.25 mg/kg/injection, schedule: Q01DX005 (ip), vehicle: saline with Tween-80 100 % of control | dose: 12.5 mg/kg/injection, schedule: Q01DX005 (ip), vehicle: saline with Tween-80 96 % of control | dose: 25.0 mg/kg/injection, schedule: Q01DX005 (ip), vehicle: saline with Tween-80 106 % of control | [13] 106 % of control

O=C(Nc1c(Cl)cccc1Cl)Nc1c(Cl)cccc1Cl
inactive: dose: 60.0 mg/kg/injection, schedule: Q01DX005 (ip), vehicle: saline with Tween-80 92 % of control | dose: 120.0 mg/kg/injection, schedule: Q01DX005 (ip), vehicle: saline with Tween-80 92 % of control | dose: 240.0 mg/kg/injection, schedule: Q01DX005 (ip), vehicle: saline with Tween-80 94 % of control

CC(=O)Nc1ccc(C(c2c(O)cc(C)[nH]c2=O)c2c(O)cc(C)[nH]c2=O)cc1
inactive: [4] 104 % of control | [5] 112 % of control | [6] 112 % of control

Cc1c(Cl)ccc2c(C(O)CBr)cc(-c3ccccc3)nc12 (configuration not stated)
inactive: [5] 103 % of control | [6] 109 % of control | [7] 100 % of control

CSC(=O)NC(=O)NC(=O)c1ccc([N+](=O)[O-])cc1
inactive: [8] 91 % of control | [9] 91 % of control

COc1ccc(NC(CCN2CCCCC2)=NC(C)(C)C)cc1
inactive: [4] 110 % of control | [5] 104 % of control | [6] 101 % of control

N#CSCc1c(Cl)cccc1Cl
inactive: dose: 25.0 mg/kg/injection, schedule: Q01DX009 (ip), vehicle: other 104 % of control | [1] 104 % of control | [2] 103 % of control | [3] 113 % of control

Cc1cn(CCCCCCCCCCCCOc2c3occc3cc3ccc(=O)oc23)c(=O)[nH]c1=O
inactive: dose: 50.0 mg/kg/injection, schedule: Q04DX002 (ip), vehicle: Klucel (hydroxypropylcellulose) (HPC) 96 % of control | dose: 100.0 mg/kg/injection, schedule: Q04DX002 (ip), vehicle: Klucel (hydroxypropylcellulose) (HPC) 98 % of control | [10] 92 % of control | dose: 200.0 mg/kg/injection, schedule: Q04DX002 (ip), vehicle: Klucel (hydroxypropylcellulose) (HPC) 95 % of control

O=C(Nc1ncnc2nc(-c3ccccc3)[nH]c12)c1ccccc1
inactive: [17] 107 % of control | [18] 95 % of control | [19] 95 % of control

O=C1CCCC(CCc2ccccc2)O1 (configuration not stated)
inactive: dose: 100.0 mg/kg/injection, schedule: Q01DX001 (ip), vehicle: saline with Tween-80 100 % of control | dose: 200.0 mg/kg/injection, schedule: Q01DX001 (ip), vehicle: saline with Tween-80 101 % of control | dose: 400.0 mg/kg/injection, schedule: Q01DX001 (ip), vehicle: saline with Tween-80 100 % of control

COC(=O)/C=C1/C(=O)N(C)c2ccccc21
inactive: [20] 98 % of control and 102 % of control | [21] 102 % of control and 111 % of control and 90 % of control | [4] 100 % of control and 106 % of control and 92 % of control | [5] 106 % of control and 110 % of control and 113 % of control
